Reference: ChEMBL document CHEMBL5096154, “A comprehensive review on the biological interest of quinoline and its derivatives” (Bioorg Med Chem, 2021)
≈ marks a conversion by molar mass, not a printed value.

Experiments:
[1] = tested on: Leishmania braziliensis; assay: Antileishmanial activity against promastigote form of Leishmania braziliensis assessed as parasite growth inhibition; format: functional
[2] = tested on: Mycobacterium tuberculosis; assay: Antimycobacterial activity against Mycobacterium tuberculosis H37Rv assessed as bacterial growth inhibition by microplate alamar blue assay; format: functional
[3] = tested on: Plasmodium falciparum; assay: Antimalarial activity against chloroquine-resistant Plasmodium falciparum assessed as parasite growth inhibition measured for 24 to 72 hrs; format: functional, organism-based

SMILES	IC90 [1]	MIC [2]	other results
CC1OC1c1ccc2ccccc2n1 (stereo unspecified)	25 µg/mL (≈ 135 µM)	–	–
CCCc1ccc2ccccc2n1	20 µg/mL (≈ 117 µM)	–	–
COc1ccc(-c2nc3ncccc3c3ccoc23)cc1	–	5.6 µM	–
CN1c2ccccc2CCC1CCc1ccc2c(c1)OCO2 (stereo unspecified)	–	–	IC50 [3]: 276 nM
C/C=C/c1ccc2ccccc2n1 [CHIMANINE B]	25 µg/mL (≈ 148 µM)	–	–
CC[C@@H](CO)NCCN[C@@H](CC)CO [ETHAMBUTOL]	–	7.6 µM	–
